{"source": "ChEMBL document CHEMBL1127754", "about": "“Design and synthesis of seco-oxysterol analogs as potential inhibitors of 3-hydroxy-3-methylglutaryl-coenzyme A (HMG-CoA) reductase gene transcription” (J Med Chem, 1994)", "type_in_all_cases": "cell-based", "key": {"[1]": {"target": "T1, 3-hydroxy-3-methylglutaryl-coenzyme A reductase (Homo sapiens) (UniProt P04035)", "T1 sequence (whole entry)": "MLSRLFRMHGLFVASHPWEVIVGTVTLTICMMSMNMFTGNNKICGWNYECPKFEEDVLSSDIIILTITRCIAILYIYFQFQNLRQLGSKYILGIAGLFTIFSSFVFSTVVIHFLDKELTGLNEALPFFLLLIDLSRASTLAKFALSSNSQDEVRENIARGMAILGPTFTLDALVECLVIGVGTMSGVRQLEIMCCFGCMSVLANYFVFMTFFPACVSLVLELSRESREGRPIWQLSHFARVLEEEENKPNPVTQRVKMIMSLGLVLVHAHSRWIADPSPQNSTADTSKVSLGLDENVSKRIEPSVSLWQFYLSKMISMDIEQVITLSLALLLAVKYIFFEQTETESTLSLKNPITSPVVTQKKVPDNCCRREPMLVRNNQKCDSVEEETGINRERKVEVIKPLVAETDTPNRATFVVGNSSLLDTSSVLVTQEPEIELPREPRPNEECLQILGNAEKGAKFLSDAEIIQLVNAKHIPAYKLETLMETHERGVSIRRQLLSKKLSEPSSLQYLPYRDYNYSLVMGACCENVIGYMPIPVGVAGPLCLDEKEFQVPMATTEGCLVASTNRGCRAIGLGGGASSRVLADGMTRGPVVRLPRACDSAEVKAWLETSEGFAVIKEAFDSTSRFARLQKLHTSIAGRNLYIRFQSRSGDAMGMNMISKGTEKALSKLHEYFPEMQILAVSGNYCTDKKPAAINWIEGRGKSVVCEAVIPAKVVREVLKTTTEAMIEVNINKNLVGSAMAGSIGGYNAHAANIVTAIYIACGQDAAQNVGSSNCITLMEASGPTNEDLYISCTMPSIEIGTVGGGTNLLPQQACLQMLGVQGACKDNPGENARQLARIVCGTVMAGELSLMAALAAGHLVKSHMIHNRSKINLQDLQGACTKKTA", "experiment": "Tested for the percent inhibition against HMG-CoA reductase transcription in HepG2 cells", "design": "concentration or dose not given beside the values", "details": "concentration not given here"}, "[2]": {"target": "T2, 3-hydroxy-3-methylglutaryl-coenzyme A reductase (Homo sapiens, UniProt P04035)", "T2 sequence (P04035 whole entry)": "T1 sequence (whole entry)", "experiment": "Tested for its inhibitory activity against HMG-CoA reductase transcription in HepG2 cells"}, "[3]": {"target": "T1, 3-hydroxy-3-methylglutaryl-coenzyme A reductase (Homo sapiens)", "experiment": "Tested for its percent inhibition against HMG-CoA reductase transcription in HepG2 cells in HMG-CoA reductase assay", "details": "concentration not given here"}, "[4]": {"target": "T1, 3-hydroxy-3-methylglutaryl-coenzyme A reductase (Homo sapiens)", "experiment": "Tested for its percent inhibition against HMG-CoA reductase transcription in HepG2 cells in HMG-CoA reductase m-RNA assay", "details": "concentration not given here"}, "[5]": {"target": "T1, 3-hydroxy-3-methylglutaryl-coenzyme A reductase (Homo sapiens)", "experiment": "Tested for its percent inhibition against HMG-CoA reductase transcription in HepG2 cells in LDL-receptor binding assay", "details": "concentration not given here"}}, "data": [{"smiles": "CC(C)CCCC[C@@H]1C[C@H](/C=C/[C@]2(C)CC[C@@H](O)CC2)[C@@H](O)[C@H]1O", "note": "(stereo in doubt; 7)", "values": [{"measurement": "inhibition", "setting": "[1]", "result": 0, "unit": "%"}]}, {"smiles": "CC(C)CCCC[C@@H]1C[C@H](/C=C/[C@]2(C)CC[C@@H](O)CC2)[C@@H](O)[C@H]1O", "note": "(stereo in doubt; 37)", "values": [{"measurement": "inhibition", "setting": "[1]", "result": 0, "unit": "%"}]}, {"smiles": "CC(C)(O)CCCCc1ccc(/C=C/[C@]2(C)CC[C@@H](O)CC2)cc1", "values": [{"measurement": "inhibition", "setting": "[1]", "result": 0, "unit": "%"}]}, {"smiles": "CC(C)(O)CCCC[C@H]1CC[C@@H](/C=C/[C@]2(C)CC[C@@H](O)CC2)C1", "note": "(stereo in doubt; 28)", "values": [{"measurement": "inhibition", "setting": "[1]", "result": 0, "unit": "%"}]}, {"smiles": "CC(C)(O)CCCCc1ccc(CC[C@]2(C)CC[C@@H](O)CC2)cc1", "values": [{"measurement": "inhibition", "setting": "[1]", "result": 0, "unit": "%"}]}, {"smiles": "C[C@H](CCCC(C)(C)O)[C@H]1CC[C@H]2[C@@H]3CC=C4C[C@@H](O)CC[C@]4(C)[C@H]3CC[C@]12C", "values": [{"measurement": "IC50", "setting": "[2]", "result": 0.3, "unit": "µM"}, {"measurement": "inhibition", "setting": "[3]", "result": 48.4, "unit": "%"}, {"measurement": "inhibition", "setting": "[4]", "result": 58.2, "unit": "%"}, {"measurement": "inhibition", "setting": "[5]", "result": 64, "unit": "%"}, {"measurement": "inhibition", "setting": "[1]", "result": 70, "unit": "%"}]}, {"smiles": "CC(C)(O)CCCCc1cccc(CC[C@]2(C)CC[C@@H](O)CC2)c1", "values": [{"measurement": "inhibition", "setting": "[1]", "result": 29.3, "unit": "%"}]}, {"smiles": "CC(C)(O)CCCC[C@H]1CC[C@@H](CC[C@]2(C)CC[C@@H](O)CC2)C1", "values": [{"measurement": "inhibition", "setting": "[1]", "result": 0, "unit": "%"}]}, {"smiles": "CC(C)(O)CCCCc1cccc(/C=C/[C@]2(C)CC[C@@H](O)CC2)c1", "values": [{"measurement": "IC50", "setting": "[2]", "result": 10, "unit": "µM"}, {"measurement": "inhibition", "setting": "[3]", "result": 29.7, "unit": "%"}, {"measurement": "inhibition", "setting": "[4]", "result": 72.7, "unit": "%"}, {"measurement": "inhibition", "setting": "[1]", "result": 46.3, "unit": "%"}]}, {"smiles": "CC(C)(O)CCCC[C@H]1CC[C@@H](/C=C/[C@]2(C)CC[C@@H](O)CC2)C1", "note": "(stereo in doubt; 6)", "values": [{"measurement": "inhibition", "setting": "[1]", "result": 0, "unit": "%"}]}]}
